Values of other authors as cited in patent publication US20240342302A1, “DEGRADER-ANTIBODY CONJUGATES AND METHODS OF USING SAME” (Angiex, Inc., priority 2021, published 2024).

Columns and labels:
[1] = patients treated with CA4P

Row | SMILES | toxicity in the clinic | cardiovascular adverse events [1]
1 | CN(C)CC#Cc1ccc(OCCCc2sc(N3CCc4cccc(C(=O)Nc5nc6ccccc6s5)c4C3)nc2C(=O)O)c(F)c1 [A115463] | on-target and dose-limiting thrombocytopenia | 
2 | CC1(C)CCC(c2ccc(Cl)cc2)=C(CN2CCN(c3ccc(C(=O)NS(=O)(=O)c4ccc(N[C@H](CCN5CCOCC5)CSc5ccccc5)c(S(=O)(=O)C(F)(F)F)c4)cc3)CC2)C1 [ABT 263] | on-target and dose-limiting thrombocytopenia | 
3 | COc1ccc(/C=C\c2cc(OC)c(OC)c(OC)c2)cc1OP(=O)(O)O [CA4P] |  | seven patients have experienced heart attacks
